Experimental findings from article PMC9014412 (Journal of medicinal chemistry, 2022) are described below.

The target of one experiment is HDAC3 (Homo sapiens, UniProt O15379). The experiment in a line: HDAC3 degradation by quantitative western blotting in HCT116 cells. The settings on record: HCT116 cells, 24 h, 0.1, 1 and 10 μM; compared with 1 at 10 μM. On the technique in general: Immunoblotting shows a protein as a band on a membrane.
For a further experiment, the system named is H3K56ac. In words: Histone H3 Lys 56 acetylation (H3K56ac) western blotting. The class given is cell-based, human. Particulars: HCT116 cells, 24 h, screen at 0.1, 1, 10 μM; relative to DMSO, CI-994 and 1 at 10 μM. From the text: Supporting Information: Biology
Representative blots of two independent biological replicates.

The next experiment addresses HDAC1 (Homo sapiens, UniProt Q13547). The experiment in a line: HDAC1 degradation by quantitative western blotting in HCT116 cells. The settings on record: HCT116 cells; for HDAC1 degradation in initial screen (in words): 24 h, 0.1, 1 and 10 μM, compared with 1 at 10 μM.
The next experiment has as its target HDAC2 (Homo sapiens, UniProt Q92769). In words: HDAC2 degradation by quantitative western blotting in HCT116 cells. Particulars: HCT116 cells, 24 h, 0.1, 1 and 10 μM; compared with 1 at 10 μM.

A word on the DC50: it is the concentration at which degradation of the target reaches its halfway point.

HDAC1, sequence (Q13547 whole entry): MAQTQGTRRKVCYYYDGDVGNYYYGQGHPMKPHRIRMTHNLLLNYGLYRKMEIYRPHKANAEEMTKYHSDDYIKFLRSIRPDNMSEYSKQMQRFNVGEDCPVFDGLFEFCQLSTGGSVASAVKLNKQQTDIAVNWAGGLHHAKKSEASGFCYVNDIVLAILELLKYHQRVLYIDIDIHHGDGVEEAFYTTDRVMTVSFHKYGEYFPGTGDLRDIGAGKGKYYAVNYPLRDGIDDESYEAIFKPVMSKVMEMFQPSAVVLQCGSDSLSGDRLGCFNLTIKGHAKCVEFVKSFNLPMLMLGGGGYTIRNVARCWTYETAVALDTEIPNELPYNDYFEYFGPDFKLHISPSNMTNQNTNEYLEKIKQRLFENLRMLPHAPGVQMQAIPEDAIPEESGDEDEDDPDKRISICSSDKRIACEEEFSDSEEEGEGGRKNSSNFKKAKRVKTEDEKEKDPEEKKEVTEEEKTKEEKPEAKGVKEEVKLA
HDAC3, sequence (O15379 whole entry): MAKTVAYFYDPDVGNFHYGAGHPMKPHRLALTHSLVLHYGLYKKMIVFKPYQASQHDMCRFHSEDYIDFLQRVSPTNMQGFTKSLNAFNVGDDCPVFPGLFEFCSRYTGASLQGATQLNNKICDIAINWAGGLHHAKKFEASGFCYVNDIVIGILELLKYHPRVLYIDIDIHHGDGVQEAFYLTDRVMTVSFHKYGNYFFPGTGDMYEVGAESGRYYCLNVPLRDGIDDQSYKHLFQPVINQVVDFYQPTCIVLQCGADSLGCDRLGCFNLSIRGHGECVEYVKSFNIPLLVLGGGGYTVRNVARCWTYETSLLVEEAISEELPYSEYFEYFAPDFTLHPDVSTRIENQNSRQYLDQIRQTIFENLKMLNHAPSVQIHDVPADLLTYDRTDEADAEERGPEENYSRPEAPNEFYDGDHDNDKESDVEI
HDAC3, sequence (Q9Y618 389-480 partner limits assumed): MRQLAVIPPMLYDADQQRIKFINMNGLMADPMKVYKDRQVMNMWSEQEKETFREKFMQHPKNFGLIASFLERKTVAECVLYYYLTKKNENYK
HDAC2, sequence (Q92769 whole entry): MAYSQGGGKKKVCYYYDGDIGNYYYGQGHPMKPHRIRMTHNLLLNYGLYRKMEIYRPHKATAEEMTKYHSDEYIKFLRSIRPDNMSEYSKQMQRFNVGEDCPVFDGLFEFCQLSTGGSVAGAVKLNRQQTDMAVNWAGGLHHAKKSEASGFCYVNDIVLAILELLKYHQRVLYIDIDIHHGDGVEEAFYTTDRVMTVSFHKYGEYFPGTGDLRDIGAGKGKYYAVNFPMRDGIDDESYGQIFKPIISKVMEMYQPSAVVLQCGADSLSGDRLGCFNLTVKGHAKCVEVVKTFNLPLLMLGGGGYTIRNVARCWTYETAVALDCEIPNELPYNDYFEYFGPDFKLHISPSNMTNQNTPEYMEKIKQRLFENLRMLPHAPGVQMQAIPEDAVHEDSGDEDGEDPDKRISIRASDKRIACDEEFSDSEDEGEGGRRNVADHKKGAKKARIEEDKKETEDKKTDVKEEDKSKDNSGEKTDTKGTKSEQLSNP
Method for HDAC1: (§1) Initially, each PROTAC was tested at 0.1, 1, and 10 μM in HCT116 cells for 24 h; then, cell extracts were prepared and evaluated for HDAC1/2 and 3 degradation by quantitative western blotting.
(§2) This cell line was incubated at 37 °C with 5% CO2.
(§3) HCT116 cells were seeded into 6-well plates (4 × 10^5 cells/well for 24 h, 2 × 10^5 cells/well for 48 h) for 24 h and then treated with DMSO or compounds at the indicated concentrations in fresh medium (5 mL total). After desired treatment time, the cells were harvested and then lysed in lysis buffer (50 mM Tris-HCl, 150 mM NaCl, 0.5% NP-40, 0.5% Triton X-100) supplemented with a protease inhibitor (Sigma, P8340). The suspension was incubated on ice for 30 min and centrifuged (18,000 rcf, 15 min, 4 °C); then, the supernatant was collected, and protein concentrations were quantified via Bradford Assay using Protein Assay Dye Reagent Concentrate (BIO-RAD). […] PageRuler Plus Prestained Ladder was used for size standards. After gel electrophoresis at 140 V for 90 min, the separated proteins were transferred onto a nitrocellulose membrane at 30 V for 60 min. The membranes were probed with primary antibodies (see the Supporting Information) for 60−90 min. Blots were developed with complimentary IRDye-conjugated secondary antibodies, and the bands were visualized using an Odyssey infrared imaging system. Image processing and band intensity quantification were performed using Image Studio Lite.
Method for HDAC2: as §1, §2, §3
Method for HDAC3: as §1, §2, §3

With `Cc1ncsc1-c1ccc(CNC(=O)[C@@H]2C[C@@H](O)CN2C(=O)C(NC(=O)CCCCCCCCCCC(=O)Nc2ccc(C(=O)Nc3ccc(F)cc3N)cc2)C(C)(C)C)cc1` (stereo in doubt) [Compound 15, N1-(4-((2-Amino-4-fluorophenyl)carbamoyl)phenyl)-N12-((S)-1-((2S,4R)-4-hydroxy-2-((4-(4-methylthiazol-5-yl)benzyl)carbamoyl)-pyrrolidin-1-yl)-3,3-dimethyl-1-oxobutan-2-yl)dodecanediamide], the “HDAC3 degradation in initial screen (in words)” value (shortened to “HDAC3 degradation”) at HDAC3 is recorded as “enhanced HDAC3 degradation compared to 1”.
Turning to `Cc1ncsc1-c1ccc(CNC(=O)[C@@H]2C[C@@H](O)CN2C(=O)[C@@H](NC(=O)COCCOCCOCC(=O)Nc2ccc(C(=O)Nc3cc(-c4cccs4)ccc3N)cc2)C(C)(C)C)cc1` [Compound 20, (2S,4R)-1-((S)-14-((4-((2-Amino-5-(thiophen-2-yl)phenyl)-carbamoyl)phenyl)amino)-2-(tert-butyl)-4,14-dioxo-6,9,12-trioxa-3-azatetradecanoyl)-4-hydroxy-N-(4-(4-methylthiazol-5-yl)benzyl)-pyrrolidine-2-carboxamide], in the experiment on H3K56ac, the “H3K56ac levels (in words)” value is listed as “did increase H3K56ac to levels similar to 1”. At HDAC1, the “HDAC1 degradation in initial screen (in words)” value (shortened to “HDAC1 degradation”) is on record as “did not result in enhanced degradation potency of HDAC1/2”. For the same compound, the DC50 at HDAC1 (read-out: DC50 HDAC1, 24 h, quantitative western blotting) was 3.51 µM. Also, the “HDAC2 degradation in initial screen (in words)” value (“HDAC2 degradation” for short) at HDAC2 is given as “did not result in enhanced degradation potency of HDAC1/2”.
On to `Cc1ncsc1-c1ccc(CNC(=O)[C@@H]2C[C@@H](O)CN2C(=O)[C@@H](NC(=O)COCCCCCCOCC(=O)Nc2ccc(C(=O)Nc3ccccc3N)cc2)C(C)(C)C)cc1` [Compound 8, (2S,4R)-1-((S)-2-(2-((6-(2-((4-((2-Aminophenyl)carbamoyl)-phenyl)amino)-2-oxoethoxy)hexyl)oxy)acetamido)-3,3-dimethylbutanoyl)-4-hydroxy-N-(4-(4-methylthiazol-5-yl)benzyl)pyrrolidine-2-carboxamide], for which, at HDAC3, the “HDAC3 degradation” value was “loss of HDAC3 degradation compared to 6 and 7”. The “H3K56ac levels (in words)” value with H3K56ac is listed as “matched those of CI-994”. For the same compound, at HDAC1, the “HDAC1 degradation” value was “comparable to that of 1 but not maintained at 1 μM”.
As for `Cc1ncsc1-c1ccc(CNC(=O)[C@@H]2C[C@@H](O)CN2C(=O)[C@@H](NC(=O)CCCCCCCC(=O)Nc2ccc(C(=O)Nc3cc(-c4cccs4)ccc3N)cc2)C(C)(C)C)cc1` [Compound 18, N1-(4-((2-Amino-5-(thiophen-2-yl)phenyl)carbamoyl)phenyl)-N9-((S)-1-((2S,4R)-4-hydroxy-2-((4-(4-methylthiazol-5-yl)benzyl)-carbamoyl)pyrrolidin-1-yl)-3,3-dimethyl-1-oxobutan-2-yl)-nonanediamide], the “HDAC1 degradation” value at HDAC1 was “did not result in enhanced degradation potency of HDAC1/2”. For the same compound, the “HDAC2 degradation” value on HDAC2 was “did not result in enhanced degradation potency of HDAC1/2”.
Regarding `CC(=O)NC(C(=O)N1C[C@H](O)C[C@H]1C(=O)NCc1ccc(-c2scnc2C)cc1OCCCCNC(=O)CCCCCCCC(=O)Nc1ccc(C(=O)Nc2ccccc2N)cc1)C(C)(C)C` (stereo in doubt) [Compound 24, N1-(4-(2-(((2S,4R)-1-((S)-2-Acetamido-3,3-dimethylbutanoyl)-4-hydroxypyrrolidine-2-carboxamido)methyl)-5-(4-methylthiazol-5-yl)-phenoxy)butyl)-N9-(4-((2-aminophenyl)carbamoyl)phenyl)-nonanediamide], the “H3K56ac levels (in words)” value in the experiment with H3K56ac is recorded as “did not increase H3K56ac levels greater than the DMSO control”. In addition, the “HDAC1 degradation” value on HDAC1 is “only modest degradation of HDAC1”.
On to `Cc1ncsc1-c1ccc(CNC(=O)[C@@H]2C[C@@H](O)CN2C(=O)[C@@H](NC(=O)CCCCCCCCCCC(=O)Nc2ccc(C(=O)Nc3cc(-c4cccs4)ccc3N)cc2)C(C)(C)C)cc1` [Compound 19, N1-(4-((2-Amino-5-(thiophen-2-yl)phenyl)carbamoyl)phenyl)-N12-((S)-1-((2S,4R)-4-hydroxy-2-((4-(4-methylthiazol-5-yl)benzyl)-carbamoyl)pyrrolidin-1-yl)-3,3-dimethyl-1-oxobutan-2-yl)-dodecanediamide], for which the “HDAC1 degradation” value on HDAC1 is recorded as “did not result in enhanced degradation potency of HDAC1/2”. The “HDAC2 degradation” value on HDAC2 was “did not result in enhanced degradation potency of HDAC1/2”.
With `Cc1ncsc1-c1ccc(CNC(=O)[C@@H]2C[C@@H](O)CN2C(=O)[C@@H](NC(=O)CCCCCCCCCC(=O)Nc2ccc(C(=O)Nc3ccccc3N)cc2)C(C)(C)C)cc1` [Compound 4, N1-(4-((2-Aminophenyl)carbamoyl)phenyl)-N11-((S)-1-((2S,4R)-4-hydroxy-2-((4-(4-methylthiazol5-yl)benzyl)carbamoyl)pyrrolidin-1-yl)-3,3-dimethyl-1-oxobutan-2-yl)undecanediamide], the “H3K56ac levels (in words)” value with H3K56ac is recorded as “increased H3K56ac levels to the same degree as the 12-atom linker 1”. Further, on HDAC1, the “HDAC1 degradation” value was “directly comparable to those of the 12-atom linker 1”.
Regarding “(2S,4R)-1-((S)-2-(2-((9-((4-((2-Aminophenyl)carbamoyl)phenyl)-amino)-9-oxononyl)oxy)acetamido)-3,3-dimethylbutanoyl)-4-hydroxy-N-(4-(4-methylthiazol-5-yl)benzyl)pyrrolidine-2-carboxamide [Compound 6]”, the “HDAC3 degradation” value on HDAC3 is given as “significantly enhanced compared to that of 1”. Moreover, the “H3K56ac levels (in words)” value in the experiment with H3K56ac is “increased H3K56ac to comparable or greater levels than CI-994 and 1”.
On to `Cc1ncsc1-c1ccc(CNC(=O)[C@@H]2C[C@@H](O)CN2C(=O)C(NC(=O)COCCOCCOCC(=O)Nc2ccc(C(=O)Nc3ccc(F)cc3N)cc2)C(C)(C)C)cc1` (stereo in doubt) [Compound 16, (2S,4R)-1-((S)-14-((4-((2-Amino-4-fluorophenyl)carbamoyl)-phenyl)amino)-2-(tert-butyl)-4,14-dioxo-6,9,12-trioxa-3-azatetradecanoyl)-4-hydroxy-N-(4-(4-methylthiazol-5-yl)benzyl)-pyrrolidine-2-carboxamide], for which the “HDAC3 degradation” value on HDAC3 was “only modest HDAC3 degradation at 10 μM”.
As for `CC(=O)NC(C(=O)N1C[C@H](O)C[C@H]1C(=O)NCc1ccc(-c2scnc2C)cc1OCCCCNC(=O)CCCCC(=O)Nc1ccc(C(=O)Nc2ccccc2N)cc1)C(C)(C)C` (stereo in doubt) [Compound 23, N1-(4-(2-(((2S,4R)-1-((S)-2-Acetamido-3,3-dimethylbutanoyl)-4-hydroxypyrrolidine-2-carboxamido)methyl)-5-(4-methylthiazol-5-yl)phenoxy)butyl)-N6-(4-((2-aminophenyl)carbamoyl)phenyl)-adipamide], in the experiment on H3K56ac, the “H3K56ac levels (in words)” value is reported as “did not increase H3K56ac levels greater than the DMSO control”. Besides, at HDAC1, the “HDAC1 degradation” value is reported as “only modest degradation of HDAC1”.
